“Also recorded” adds a separate entry of the source. Where a name gives a salt, the structure may show the parent alone.
Tests used:
Abca4−/−Rdh8−/− mice = assay: Bright light-induced retinal degeneration in Abca4−/−Rdh8−/− mice, OCT imaging of retinal structure; type: in vivo, mouse; conditions: for retinal protection at full individual dose: BRM 1, MTP 10, TAM 2.5 mg/kg bw individually; for Percent of mice with: subeffective doses BRM 0.1, MTP 1, TAM 0.05, DOX 1 mg/kg bw, OCT 7 days; for light-exposed mice with complete retinal protection: lower doses BRM 0.1, MTP 1, TAM 0.05 mg/kg bw, alone or all three combined; for retinal / photoreceptor morphology by OCT imaging: pretreatment before light 10,000 lux 30 min, OCT 7 days after light exposure
[1] = target: T1, Dopamine D4 receptor (D4R) (Homo sapiens, UniProt P21917); assay: BRET assay for G protein activation in live cells, D4R-Go; type: cell-based; conditions: for agonistic activity on D4R (BRET signal): HEK293T/17 cells, BRM 25 μM, MTP 100 μM, DOX 50 μM, TAM 100 μM
T1 construct: host or cells: HEK293T/17
T1 sequence (P21917 1-419): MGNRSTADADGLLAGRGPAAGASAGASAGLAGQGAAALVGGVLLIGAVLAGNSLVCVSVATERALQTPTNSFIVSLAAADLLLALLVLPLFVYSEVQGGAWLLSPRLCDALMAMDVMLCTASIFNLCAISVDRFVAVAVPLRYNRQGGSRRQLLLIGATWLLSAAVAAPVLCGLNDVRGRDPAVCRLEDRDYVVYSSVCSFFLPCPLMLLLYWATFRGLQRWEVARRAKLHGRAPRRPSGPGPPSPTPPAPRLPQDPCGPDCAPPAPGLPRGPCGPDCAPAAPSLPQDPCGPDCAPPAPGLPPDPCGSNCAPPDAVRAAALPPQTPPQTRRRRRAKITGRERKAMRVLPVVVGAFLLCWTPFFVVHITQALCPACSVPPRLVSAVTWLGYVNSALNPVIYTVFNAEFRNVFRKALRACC
Text: FIGS. 35(A-C) illustrate characterizing the activity of BRM, MTP, DOX, and TAM on dopamine and adrenaline receptors (A) Schematic representation of the BRET assay used to evaluate actions of drugs on selected GPCRs. […] The free Venus-Gβγ then interacts with the Gβγ-effector mimetic masGRK3ct-Nluc to produce the BRET signal. GDP, guanosine diphosphate; GRK, G protein-coupled receptor kinase; Nluc, nanoluciferase. (B) Left: Representative BRET signal traces recorded upon activation of D4R with indicated drugs in cells expressing Gαo and Venus-Gβγ, illustrating the agonism assay. Right: Representative traces of D2R responses to 1 μM dopamine in the absence (control) or presence of indicated drugs, illustrating antagonism assay. Note that, in the antagonism assay shown, the black trace overlaps with the red trace and therefore is not visible. (C) Top: Quantification of agonistic activity of ligands on D2R, D4R, D1R, and ADRA1A. D2R-GO, D4R-GO, D1R-Gs, and ADRA1A-Gq signaling were reconstituted in HEK293T/17 cells by transient transfection separately. Maximum amplitudes induced by dopamine (DA; 100 μM), noradrenaline (NA; 100 μM), BRM (25 μM), MTP (100 μM), DOX (50 μM), and TAM (100 μM) were plotted as bar graphs. […] The activity is plotted as percent inhibition. Data are means±SD. Results are representative of two independent experiments each performed with 12 replicates.
Dopamine D1, dopamine D4, and α1A-adrenergic receptors were purchased from cDNA Resource Center (Bloomsburg University, Bloomsburg, Pa.). Plasmid encoding the Flag-tagged, long isoform of the D2 dopamine receptor was a gift from A. Kovoor (University of Rhode Island). pCMV5 plasmids encoding GαoA were gifts from H. Itoh (Nara Institute of Science and Technology, Japan). Plasmids encoding Venus 156-239-Gβ1 and Venus 1-155-Gγ2 were gifts from N. Lambert (Georgia Regents University). Plasmids encoding RGS9-2, Gβ5S, R7BP, and masGRK3ct-Nluc were previously described.
BRET experiments were performed as previously reported with slight modifications. […] BRET measurements were performed using a microplate reader (POLARstar Omega, BMG Labtech) equipped with two emission photomultiplier tubes. […] The BRET signal is determined by calculating the ratio of the light emitted by Gβ1γ2-Venus (535 nm) over the light emitted by masGRK3ct-Nluc (475 nm). The average baseline value recorded before agonist stimulation was subtracted from BRET signal values, and the resulting difference (ABRET ratio) was obtained.
We used a real-time kinetic assay in which G protein activation by GPCRs is quantified by monitoring changes in the bioluminescence resonance energy transfer (BRET) signal between Venus-tagged Gβγ and its luciferase-tagged reporter in living cells (FIG. 35A). […]

[2] = system: retinal transcriptome of Abca4−/−Rdh8−/− mice; assay: RNA-seq retinal transcriptome of pretreated, light-exposed Abca4−/−Rdh8−/− mice (differential expression, Pearson, GSEA); type: in vivo, mouse; conditions: for NES, CHEMOKINE SIGNALING gene set / NES, CYTOKINE- RECEPTOR INTERACTIO gene set / NES, P53 gene set / NES, TOLL-LIKE SIGNALING gene set / NES, APOPTOSIS gene set: GSEA, vehicle-treated light-exposed retinas against drug-treated; for NES, APOPTOSIS gene set: P in brackets not reported here; for number of light-up-regulated gene sets significantly down-regulated (GSEA): of 44 gene sets up-regulated by light, mono doses BRM 1, MTP 10, TAM 2.5, DOX 10 mg/kg bw
[3] = Table 14 (complete protection, ONL ≥50 μm)
[4] = Table 14 (no protection, ONL ≤20 μm)

CCOc1ccccc1OCCN[C@H](C)Cc1ccc(OC)c(S(N)(=O)=O)c1.Cl [Tamsulosin]
retinal protection at full individual dose (Abca4−/−Rdh8−/− mice): Complete retinal protection
Percent of mice with (Abca4−/−Rdh8−/− mice; [3]): 16.7% of mice
Percent of mice with (Abca4−/−Rdh8−/− mice; [4]): 58.3% of mice
light-exposed mice with complete retinal protection (Abca4−/−Rdh8−/− mice): 17%
retinal / photoreceptor morphology by OCT imaging (Abca4−/−Rdh8−/− mice; listed as TAM): substantial protection on photoreceptor morphology; also recorded: dose-dependent retinal protection
agonistic activity on D4R (BRET signal) [1]: partial agonistic effect
NES, CHEMOKINE SIGNALING gene set [2]: 1.39
NES, CYTOKINE- RECEPTOR INTERACTIO gene set [2]: 2.29
NES, P53 gene set [2]: 1.98
NES, TOLL-LIKE SIGNALING gene set [2]: 1.83
NES, APOPTOSIS gene set [2]: 1.60
number of light-up-regulated gene sets significantly down-regulated (GSEA) [2]: 32 gene sets

COCCc1ccc(OCC(O)CNC(C)C)cc1 (stereo not shown) [MTP, metoprolol tartrate]
retinal protection at full individual dose (Abca4−/−Rdh8−/− mice): Complete retinal protection
Percent of mice with (Abca4−/−Rdh8−/− mice; [3]): 25% of mice
Percent of mice with (Abca4−/−Rdh8−/− mice; [4]): 41.7% of mice
light-exposed mice with complete retinal protection (Abca4−/−Rdh8−/− mice): 25%
retinal / photoreceptor morphology by OCT imaging (Abca4−/−Rdh8−/− mice): dose-dependent retinal protection
agonistic activity on D4R (BRET signal) [1]: no agonistic or antagonistic effects
antagonistic activity on D4R (inhibition of BRET signal) ([1]; preincubation with ligand, then 1 μM dopamine): no agonistic or antagonistic effects
NES, CHEMOKINE SIGNALING gene set [2]: 1.44
NES, CYTOKINE- RECEPTOR INTERACTIO gene set [2]: 2.30
NES, P53 gene set [2]: 2.04
NES, TOLL-LIKE SIGNALING gene set [2]: 2.05
NES, APOPTOSIS gene set [2]: 1.61
number of light-up-regulated gene sets significantly down-regulated (GSEA) [2]: 36 gene sets
preservation of retinal gene expression pattern (in words) ([2]; retinas 1 day after light exposure): conferred the most protection

COc1cc2nc(N3CCN(C(=O)C4COc5ccccc5O4)CC3)nc(N)c2cc1OC.CS(=O)(=O)O (stereo not shown) [Doxazosin]
Percent of mice with (Abca4−/−Rdh8−/− mice; [3]): 0% of mice
Percent of mice with (Abca4−/−Rdh8−/− mice; [4]): 100% of mice
retinal / photoreceptor morphology by OCT imaging (Abca4−/−Rdh8−/− mice; listed as DOX): substantial protection on photoreceptor morphology; also recorded: dose-dependent fashion
half maximal effective (protective) dose (Abca4−/−Rdh8−/− mice; protection from bright light-induced degeneration, dose-response, FIG. 25A/B): 0.4 mg/kg
agonistic activity on D4R (BRET signal) [1]: partial agonistic effect
NES, CHEMOKINE SIGNALING gene set [2]: 1.41
NES, CYTOKINE- RECEPTOR INTERACTIO gene set [2]: 2.42
NES, P53 gene set [2]: 2.18
NES, TOLL-LIKE SIGNALING gene set [2]: 1.99
NES, APOPTOSIS gene set [2]: 1.75
number of light-up-regulated gene sets significantly down-regulated (GSEA) [2]: 28 gene sets

Source: patent US10426773B2, “Systems pharmacology for treating ocular disorders” (Case Western Reserve Univeristy, priority 2011, dated 2019)
